Measurements from patent US3955959A, “Herbicide for use in transplanted rice” (priority 1974, dated 1976).
In brackets after ≈: the same amount, converted by molar mass.

Experiments:
[1] = test system: Ce (Cyperus esculentus); assay: Example 7 greenhouse preemergence activity; format: in vivo
Procedure: In a further comparative study of the preemergence activity of Herbicides A and B, a variety of weeds and upland direct-seeded rice were tested under greenhouse conditions. The present invention is not concerned with the use of Herbicide A in direct-seeded rice. The primary purpose of the experimental work in this example is to compare relative herbicidal activity of Herbicides A and B against the weeds shown in Table 7; most of these weeds were not available for tests with transplanted rice. Although the relative selectivity of these herbicides in upland rice is also evident, that aspect of the tests is more or less incidental to the purpose of this example.
In this example, rice seeds and seeds of the weeds shown in Table 7 were sown in Ray silt loam soil at a depth of 0.5 inch (1.27 cm) in containers for the soil in a greenhouse. Herbicides A and B were applied to the surface of the soil at a spray volume equivalent to 20 gals/acre (187.1 liters/hectare), followed by 0.5 in (1.27 cm) of overhead irrigation. Temperature and relative humidity in the greenhouse were on the order of 85°F (29°C) and 75%, respectively. Observations were made at 21-28 days after seeding.
In Table 7 are shown the average rates of herbicide required to cause a growth reduction of 85% of the weeds ("GR85 "), and the average rate of herbicide required to cause a growth reduction of 15% ("GR15 ") of the rice plants (Oryza sativa, "Os", variety Bluebelle).

[2] = test system: Broadleaf: Mv, Sz (Monochoria vaginalis, Sphenoclea zeylanica); assay: Example 4 field test on ordinary rice, weed control, Munoz, Philippines; format: in vivo, Monochoria vaginalis and Sphenoclea zeylanica; details: obs. 36 DAT
Description: Treatments were replicated four times.

[3] = test system: transplanted rice; assay: Example 2 field test, crop injury; details: obs. 63 DAT
Procedure: (§1) In the tests described in the tables below, the herbicides were formulated and used in granular form in conventional manner. […] The commercial herbicide used was a granular product having 5% active ingredient.
(§2) In the field tests of the herbicide of this invention with transplanted rice, the rice seedlings were grown in conventional manner, by seeding the rice in a typical seedbed of sandy loam to clay soil of the country wherein the test was conducted. For laboratory and greenhouse work the seedlings were obtained by seeding rice in a mixture of soil, e.g., Ray silt loam, and peat in wood flats. For purposes of testing the herbicides on younger rice seedlings (infant or Dapog) the rice was usually allowed to grow for 6-15 days before lifting for transplanting. Older (ordinary) rice plants were usually grown for a period of about 2-3 weeks, or as much as about 7 weeks before lifting. Since the period of growth is dependent upon climatic conditions, a better measure of when to transplant the rice seedling is the leaf stage of growth; for infant or Dapog rice the seedling is lifted at the 1.5-2 leaf stage of growth, and for ordinary seedlings at the 2.5-5 leaf stage. The seedlings were then transplanted to the test plots for evaluation of the herbicide for injury against weed species present with the transplanted rice. The herbicides were then applied to the growth medium of the weeds and transplant rice, either preemergent or postemergent with respect to the weeds and postemergent with respect to the transplanted rice. Application times are designated in the tables as "DAT", meaning "days after transplant". Application rates given in the tables refer to the amount of active ingredient used.
Rice seedlings (ordinary) of Tainan No. 5 variety (japonica) were transplanted at 19 days of growth. Granular formulations of Herbicides A and B were applied at the 1 leaf stage of grass weed (4 DAT) and 2.5 leaf stage of grass weed (10 DAT). Observations were made at 63 DAT and results reported in Table 2 as an average of 3 replications.

[4] = test system: weeds in transplanted rice; assay: Field tests / general herbicidal activity in transplanted rice; format: in vivo; details: field tests
[5] = Example 10 fish toxicity, Japanese protocol; format: in vivo, carp; details: carp, in vivo, read-out: Medium Lethal Concentration
Procedure: In view of the importance of fish toxicological considerations, tests were conducted, using carp according to the Japanese protocol, to compare toxicity data for Herbicides A and B; results of those tests are shown in Table 10.

[6] = test system: Mv (Monochoria vaginalis); assay: Example 5 field test, weed control, JAAPR, Japan; format: in vivo; details: 1.5 kg/ha, 7 DAT
[7] = test system: transplanted rice (ordinary and infant seedlings); assay: Example 5 field test, rice yield; format: in vivo; details: 1.5 kg/ha, 7 DAT
Procedure: as §1, §2
The rice seedlings were grown to the 1.7 leaf stage for infant seedlings and to the 5.5 leaf stage for ordinary seedlings. Two days after puddling the soil in which the seedlings were to be transplanted, both infant and ordinary seedlings were transplanted into plots 8.5 m^2.
The weed symbol "Obw" represents "other broadleaf weeds" of unspecified identity. Results presented in Table 5 represent the average of 2 replications.

[8] = test system: Ea (Eleocharis acicularis); assay: Example 5 field test, weed control, JAAPR, Japan; format: in vivo; details: 1.5 kg/ha, 7 DAT
[9] = test system: Obw (other broadleaf weeds); assay: Example 5 field test, weed control, JAAPR, Japan; format: in vivo; details: 1.5 kg/ha, 7 DAT
[10] = test system: Dapog transplanted rice; assay: Example 3 field test, crop injury; details: obs. 42 DAT
Procedure: as §1, §2
Eleven (11) day-old Dapog seedlings were transplanted and treated at 5 DAT and 14 DAT with Herbicides A and B. The plots were overseeded with Echinochloa crusgalli seeds at 2 kgs/ha prior to transplanting. Treatments were replicated four times.

[11] = test system: Ec (Echinochloa crusgalli); assay: Example 5 field test, weed control, JAAPR, Japan; format: in vivo; details: 1.5 kg/ha, 7 DAT

For `CCCCOCN(C(=O)CCl)c1c(CC)cccc1CC` [Herbicide B, n-(butoxymethyl)-2',6'-diethyl-2-chloroacetanilide, reference compound], the “resistance of Ce” value [1] was “resists”, the “% Weed control, Broadleaf (Mv,Sz)” value ([2]; 5 DAT, 1.0 kg/ha) was 100% and the “% Weed control, Broadleaf (Mv,Sz)” value ([2]; 5 DAT, 1.5 kg/ha) was 100%. The “% Weed control, Broadleaf (Mv,Sz)” value ([2]; 5 DAT, 3.0 kg/ha) was 100%, the “% Weed control, Broadleaf (Mv,Sz)” value ([2]; 14 DAT, 1.0 kg/ha) was 0% and the “% Weed control, Broadleaf (Mv,Sz)” value ([2]; 14 DAT, 1.5 kg/ha) was 0%. For the same compound, the “% Weed control, Broadleaf (Mv,Sz)” value ([2]; 14 DAT, 3.0 kg/ha) was 50%, the “% Crop Injury, stand” value ([3]; 4 DAT, 1.0 kg/ha) was 0% and the “% Crop Injury, vigor” value ([3]; 4 DAT, 1.0 kg/ha) was 0%. The “% Crop Injury, stand” value ([3]; 4 DAT, 1.5 kg/ha) was 0%, the “% Crop Injury, vigor” value ([3]; 4 DAT, 1.5 kg/ha) was 0% and the “% Crop Injury, stand” value ([3]; 4 DAT, 3.0 kg/ha) was 0%. The “% Crop Injury, vigor” value ([3]; 4 DAT, 3.0 kg/ha) was 0%, the “% Crop Injury, stand” value ([3]; 10 DAT, 1.0 kg/ha) was 0% and the “% Crop Injury, vigor” value ([3]; 10 DAT, 1.0 kg/ha) was 0%. For the same compound, the “% Crop Injury, stand” value ([3]; 10 DAT, 1.5 kg/ha) was 0%, the “% Crop Injury, vigor” value ([3]; 10 DAT, 1.5 kg/ha) was 0% and the “% Crop Injury, stand” value ([3]; 10 DAT, 3.0 kg/ha) was 0%. For the same compound, the “% Crop Injury, vigor” value ([3]; 10 DAT, 3.0 kg/ha) was 0%, the “latest/optimum application stage of weeds” value [4] was 1 leaf stage and the LC50 at 48 h ([5]; 48 hours) was 1 µg/mL (≈ 3.21 µM). For the same compound, the LC50 at 96 h ([5]; 96 hours) was 0.76 µg/mL (≈ 2.44 µM), the “% Weed Control (Mv)” value ([6]; infant seedlings) was 66% and the “% Weed Control (Mv)” value ([6]; ordinary seedlings) was 86%. For the same compound, the “Yield % of H.W.C.” value ([7]; infant seedlings) was 99%, the “Yield % of H.W.C.” value ([7]; ordinary seedlings) was 92% and the “control of Ea in words” value [8] was “complete control”. For the same compound, the “% Weed Control (Ea)” value ([8]; infant seedlings) was 100%, the “% Weed Control (Ea)” value ([8]; ordinary seedlings) was 93% and the “control of Obw in words” value [9] was “complete control”. For the same compound, the “% Weed Control (Obw)” value ([9]; infant seedlings) was 100%, the “% Weed Control (Obw)” value ([9]; ordinary seedlings) was 71% and the “Crop Injury (%)” value ([10]; 5 DAT, 1.0 kg/ha) was 0%. The “Crop Injury (%)” value ([10]; 5 DAT, 1.5 kg/ha) was 0%, the “Crop Injury (%)” value ([10]; 5 DAT, 3.0 kg/ha) was 0% and the “Crop Injury (%)” value ([10]; 14 DAT, 1.0 kg/ha) was 0%. The “Crop Injury (%)” value ([10]; 14 DAT, 1.5 kg/ha) was 0%, the “Crop Injury (%)” value ([10]; 14 DAT, 3.0 kg/ha) was 0% and the “control of Ec in words” value [11] was “substantially complete control”. For the same compound, the “% Weed Control (Ec)” value ([11]; infant seedlings) was 99% and the “% Weed Control (Ec)” value ([11]; ordinary seedlings) was 81%.
